In patent publication EP1154787B1 (priority 1999, dated 2000):
“And” between values parts separate entries of the source, which are not always exact repeats. Equal entries are not always repeated. “Also recorded” adds a separate entry of the source. Structures can show the parent of a compound that is named as a salt. Where two headings read alike, the source gives them in different places.

Legend:
[1] = system: yellow fever virus; type: cell-based
[2] = system: dengue virus; type: cell-based
[3] = system: VSV; type: cell-based
[4] = system: VSV; type: cell-based; remark: listed apart in the source
[5] = system: a viral challenge; type: cell-based; settings: for EC50: read-out: µM of test compounds # (concentration of test compound alone to protect Vero cells against a viral challenge by approximately 50%)
[6] = system: kunjin virus; type: cell-based
[7] = cited from earlier work
[8] = system: kunjin virus; type: cell-based; remark: listed apart in the source

Row | SMILES | CI [1] | Fold enhancement of antiviral activity [5] | EC50 [5] | CI [4] | other results
1 | NC(=O)c1csc([C@@H]2O[C@H](CO)[C@@H](O)[C@H]2O)n1 [Tiazofurin, 2-β-D-ribofuranosylthiazole-4-carboxamide] | 0.85 and 0.68 and 0.51 and 0.87 | – | – | – | –
2 | CCc1c(CNc2ccc(C(=O)NC(CC(=O)O)C(=O)O)cc2)ccc2nc(N)nc(N)c12 (stereo not drawn) [NSC 184692] | – | – | – | – | enhanced the anti-viral effect of human IFNβ [2]: 10 fold; EC50 ([2]; read-out: ED50 against dengue virus): 0.12 nM
3 | Cc1nc(N)nc(N)c1-c1ccc(Cl)c(Cl)c1 [NSC 7364] | – | – | – | – | CI [2]: 0.834 and 0.813 and 0.979; IC50 ([2]; read-out: NSC 7364 IC50): 372 nM
4 | NC(=O)c1[nH]nc([C@@H]2O[C@H](CO)[C@@H](O)[C@H]2O)c1O [NSC 143095] | 0.71 and 0.57 and 0.69 | – | – | – | –
5 | COc1c(C)c2c(c(O)c1C/C=C(\C)CCC(=O)O)C(=O)OC2 [mycophenolic acid] | – | 3 fold | ~0.1 µM | – | CI [3]: 0.48 and 0.46 and 0.56; IC50 ([4]; read-out: MPA IC50): 200 nM
6 | Nc1ccn([C@@H]2C=C(CO)[C@@H](O)[C@H]2O)c(=O)n1 [CPE-C, cyclopentenyl cytosine] | – | 10 fold | ~0.1 µM | 0.98 and 0.81 and 0.80 and 0.97 and 0.75 and 0.79 and 0.76 and 0.74 | enhancement of the antiviral activity of interferon [6]: 10 fold and 5 fold; deaths with refractory hypotension ([7]; hypotensive patients at 4.7 mg/m^2 per hour of CPE-C): Two of the four hypotensive patients died; hypotension ([7]; patients receiving ≤2.5 mg/m^2 per h CPE-C): Hypotension was not seen; also recorded: no hypotension was observed; hypotension ([7]; patients who received 4.7 mg/m^2 per hour of CPE-C, 24 to 48 hours after completion of infusion): Four of the eleven patients
7 | NC12CC3CC(CC(C3)C1)C2 [amantadine, amantadine hydrochloride] | – | 50 fold | ~1 µM | – | CI ([4]; hydrochloride): 0.79 and 0.76 and 0.62 and 0.66 and 0.87; CI [8]: 0.76
8 | NC(=O)c1c[se]c([C@@H]2O[C@H](CO)[C@@H](O)[C@H]2O)n1 [Selenofurin, 2-β-D-ribofuranosylselenazole-4-carboxamide] | 0.94 and 0.65 and 0.53 and 0.62 and 0.49 | – | – | – | –
9 | O=c1cnn([C@@H]2O[C@H](CO)[C@@H](O)[C@H]2O)c(=O)[nH]1 [6-AU, 6-azauridine] | – | – | – | 0.49 and 0.59 | –
10 | C#Cc1c(C(N)=O)ncn1[C@@H]1O[C@H](CO)[C@@H](O)[C@H]1O [EICAR, 5-ethynyl-1-β-D-ribofuranosylimidazole-4-carboxamide] | – | 2 fold | ~1 µM | – | –
11 | CCc1nc(N)nc(N)c1-c1ccc(Cc2ccccc2)c([N+](=O)[O-])c1 [NSC 382046] | – | – | – | – | CI [8]: 0.99 and 0.96 and 0.83 and 0.75 and 0.70; CI [2]: 0.758 and 0.672
12 | Nc1ncnc2c1ncn2[C@@H]1C=C(CO)[C@@H](O)[C@H]1O [Neplanocin A, neplanocin A] | 0.63 and 0.71 and 0.59 | – | – | 0.80 and 0.56 and 0.40 and 0.67 and 0.71 | –
13 | Nc1nccc2c1ncn2[C@@H]1C=C(CO)[C@@H](O)[C@H]1O [3-DAN, 3-deazaneplanocin A] | – | – | – | 0.88 and 0.85 and 0.79 and 0.80 and 0.92 and 0.90 and 0.84 | –
